Test results: patent US11326168B2, “Use of potassium channel inhibitor for treating depression” (ZHEJIANG UNIVERSITY, priority 2017, dated 2022)

Key:
LHb neurons = assay type: cell-based
Kir4.1 = molecular target: T1, Kir4.1 (Homo sapiens, UniProt P78508); conditions: Ohno et al., 2007; Wang et al., 2006; Kharade et al., 2018; cited from earlier work
T1 sequence (P78508 1-379): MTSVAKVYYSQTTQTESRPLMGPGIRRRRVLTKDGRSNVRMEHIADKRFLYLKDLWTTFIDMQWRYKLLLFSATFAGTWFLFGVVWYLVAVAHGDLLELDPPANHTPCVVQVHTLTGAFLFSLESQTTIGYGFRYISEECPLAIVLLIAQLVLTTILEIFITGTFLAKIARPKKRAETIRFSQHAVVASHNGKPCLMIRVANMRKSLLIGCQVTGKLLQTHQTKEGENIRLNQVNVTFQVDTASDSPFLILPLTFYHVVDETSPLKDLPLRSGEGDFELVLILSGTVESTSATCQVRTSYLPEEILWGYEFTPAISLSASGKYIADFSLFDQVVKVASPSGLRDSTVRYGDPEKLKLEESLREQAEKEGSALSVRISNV

| SMILES | firing frequency of bursting neurons (LHb neurons) | RMPs of tonic and burst-firing LHb neurons (LHb neurons; BaCl2 100 μM, about 10 min bath perfusion) | Kir4.1 inhibition (literature statement) (Kir4.1) |
| --- | --- | --- | --- |
| [Ba+2].[Cl-].[Cl-] [BaCl2] | dramatic increase | depolarized | – |
| CC(C)c1ccc(OCC(=O)NC2CC(C)(C)NC(C)(C)C2)c(Br)c1 [VU0134992] | – | – | highly selective and specific Kir4.1 inhibitor |
| CN(C)CCC=C1c2ccccc2CCc2ccccc21 [amitriptyline] | – | – | inhibit Kir4.1, yet with lower affinity |
| CNCCCN1c2ccccc2CCc2ccccc21 [desipramine] | – | – | inhibit Kir4.1, yet with lower affinity |
| CNCCC(Oc1ccc(C(F)(F)F)cc1)c1ccccc1 (stereo not shown) [fluoxetine] | – | – | inhibit Kir4.1, yet with lower affinity |
| COCCCC/C(=N\OCCN)c1ccc(C(F)(F)F)cc1 [fluvoxamine] | – | – | inhibit Kir4.1, yet with lower affinity |
| CN(C)CCCN1c2ccccc2CCc2ccccc21 [imipramine] | – | – | inhibit Kir4.1, yet with lower affinity |
| CNCCC=C1c2ccccc2CCc2ccccc21 [nortriptyline] | – | – | inhibit Kir4.1, yet with lower affinity |
| CN[C@H]1CC[C@@H](c2ccc(Cl)c(Cl)c2)c2ccccc21 [sertraline] | – | – | inhibit Kir4.1, yet with lower affinity |
